The record followed here is ChEMBL document CHEMBL5576096, “Triplinones A-H: Anti-Inflammatory Arylalkenyl α,β-Unsaturated-δ-Lactones Isolated from the Leaves of Australian Rainforest Plant Cryptocarya triplinervis (Lauraceae)” (J Nat Prod, 2024).

Data set [1] is described as follows: Cytotoxicity against LPS/IFNgamma-stimulated mouse RAW264.7 cells assessed as reduction in cell viability after 24 hrs by Alamar Blue assay. In kind it is toxicity, cell-based. The note with it: LPS/IFNgamma-stimulated RAW264.7 cells, read-out: LC50.
Data set [2] relates to RAW264.7. Nature of the data set: Inhibition of NO production in LPS/IFNgamma-stimulated mouse RAW264.7 cells preincubated for 1 hr followed by LPS/IFNgamma addition and measured after 24 hrs by griess reagent based assay. In kind it is functional, cell-based.
A short description of data set [3]: Inhibition of TNF-alpha production in LPS/IFNgamma-stimulated mouse RAW264.7 cells preincubated for 1 hr followed by LPS/IFNgamma addition and measured after 24 hrs by ELISA. Type of data set: functional, cell-based. On the technique in general: An ELISA detects its analyte on a solid surface through an enzyme-linked reagent.
A short description of data set [4]: Therapeutic index, ratio of LC50 for cytotoxicity against LPS/IFNgamma-stimulated mouse RAW264.7 cells to IC50 for inhibition of NO production in LPS/IFNgamma-stimulated mouse RAW264.7 cells. Type of data set: toxicity, cell-based. The note with it: LPS/IFNgamma-stimulated RAW264.7 cells, read-out: Ratio LC50/IC50.

As a reminder, the IC50 is the point on the concentration scale where inhibition reaches its midpoint. High values mean lower potency, low ones higher potency. Take `O=C1C=CC[C@H](C[C@@H](O)C[C@H](O)C[C@@H](O)CC/C=C/c2ccccc2)O1`: the CC50 at 24 h in data set [1] is greater than 278 µM. Also, the half-maximal inhibitory concentration (IC50) in data set [2] is 102 µM; in data set [3] it was greater than 278 µM. For the same molecule, the selectivity ratio in data set [4] is greater than 2.7.

On to `O=C1C=CC[C@H](CCC[C@H](O)C[C@@H](O)CC/C=C/c2ccccc2)O1`, for which the CC50 at 24 h in data set [1] was determined as 33.4 µM. Also, the values for the IC50 in data set [2] and in data set [3] were 6 µM and 27.4 µM, respectively. Further, the selectivity ratio in data set [4] was determined as 5.6.

Take `O=C1C=CC[C@H](C[C@@H](O)CCC[C@H](O)C[C@@H](O)CC/C=C/c2ccccc2)O1`: in data set [1], the CC50 at 24 h came to 41.3 µM. Further, the IC50 was determined as 15 µM in data set [2] and 28.9 µM in data set [3]. Moreover, in data set [4], the selectivity ratio worked out at 2.8.

`CC(=O)O[C@H](C[C@@H](O)CC/C=C/c1ccccc1)C[C@H]1CC=CC(=O)O1`: the CC50 at 24 h in data set [1] is 97.9 µM. Also, the IC50 in data set [2] came to 10.3 µM; in data set [3] it was 17.1 µM. Besides, the selectivity ratio in data set [4] was 9.5.

`O=C1C=CC[C@H](/C=C/C=C/C[C@H](O)C[C@@H](O)CC/C=C/c2ccccc2)O1`: in data set [1], the CC50 at 24 h amounted to 41.3 µM. The figures for the concentration for half-maximal inhibition (IC50) in data set [2] and in data set [3] were 5.4 µM and 27.9 µM, respectively. In addition, in data set [4], the selectivity ratio was determined as 7.6.

Turning to `O=C1C=CC[C@H](/C=C/C[C@H](O)C[C@@H](O)CC/C=C/c2ccccc2)O1`, the CC50 at 24 h in data set [1] was 79.8 µM. For the same molecule, the IC50 was determined as 7.3 µM in data set [2] and 28.3 µM in data set [3]. In data set [4], the selectivity ratio was 10.9.

In the case of `O=C1C=CC[C@H](C[C@H](O)C[C@@H](O)CC/C=C/c2ccccc2)O1`, the CC50 at 24 h in data set [1] was 37.6 µM. Further, the IC50 in data set [2] is 5.6 µM; in data set [3], 29.4 µM. Besides, the selectivity ratio in data set [4] came out at 6.8.

In the case of `O=C1C=CC[C@H](CC(O)/C=C/C[C@H](O)C[C@@H](O)CC/C=C/c2ccccc2)O1` (stereo partly specified), the CC50 at 24 h in data set [1] worked out at 159 µM. In addition, the figures for the IC50 in data set [2] and in data set [3] were 64.7 µM and 39.1 µM, respectively. The selectivity ratio in data set [4] was 2.5.

As to `COc1cc(/C=C/C(=O)CC(=O)/C=C/c2ccc(O)c(OC)c2)ccc1O` [CURCUMIN], the CC50 at 24 h in data set [1] came to 73 µM. Besides, the half-inhibitory concentration (IC50) stood at 22.5 µM in data set [2] and 31.2 µM in data set [3]. In data set [4], the selectivity ratio is 3.2.
